Results on five compounds are retold here after PubChem BioAssay (NCI).

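These data come from cells grown in 96-well plates and exposed to compound for 48 hours at five concentrations. Abbreviation: GI50, concentration required for 50% inhibition of growth. Definition used: TGI = concentration required for complete inhibition of growth.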 Some results are limits rather than exact numbers.

Some test systems named below: HCT-15 colon; SK-MEL-2 melanoma; NCI-H522 lung; SR leukemia; OVCAR-4 ovarian; SW-620 colon; TK-10 renal; HCT-116 colon; BT-549 breast; SK-OV-3 ovarian.
Common to all, as to experiment: growth of human tumour cells (NCI), 48 h

For the compound `COc1ccc(-c2nocc2-c2cc(OC)c(OC)c(OC)c2)cc1`, the GI50 is 0.0447 µM in the assay on HCT-15 colon; 0.0664 µM in the assay on SK-MEL-2 melanoma; 0.0323 µM in the assay with NCI-H522 lung; 0.0497 µM with SR leukemia; 2.21 µM in the assay with OVCAR-4 ovarian; 0.0466 µM in the assay with SW-620 colon. Also, the GI50 is 0.93 µM with TK-10 renal, 0.0412 µM with HCT-116 colon, 0.112 µM in the assay with BT-549 breast and 0.142 µM in the assay with SK-OV-3 ovarian. Besides, the TGI in the assay with HCT-15 colon is more than 100 µM; in the assay on SK-MEL-2 melanoma, 69.2 µM; in the assay with NCI-H522 lung, 0.499 µM; with SR leukemia it was more than 76.3 µM; in the assay with OVCAR-4 ovarian, more than 100 µM; in the assay on SW-620 colon it was more than 100 µM. Besides, the TGI in the assay with TK-10 renal is 62.7 µM; in the assay with HCT-116 colon it was 13.1 µM; with BT-549 breast, 19.5 µM; with SK-OV-3 ovarian, more than 82.8 µM.
With `Cc1ccccc1/C=C1\CN(C(=O)OC(C)(C)C)C/C(=C\c2ccccc2C)C1=O`, the GI50 is 2.1 µM with HCT-15 colon; 10.1 µM with SK-MEL-2 melanoma; 2.2 µM with NCI-H522 lung; 1.89 µM in the assay with SR leukemia; 2.6 µM in the assay on OVCAR-4 ovarian; 2.99 µM in the assay with SW-620 colon. The GI50 was 3.65 µM in the assay on TK-10 renal, 1.9 µM with HCT-116 colon, 2.3 µM with BT-549 breast and 5.77 µM in the assay on SK-OV-3 ovarian. Further, the TGI was 5.76 µM in the assay on HCT-15 colon; 26.5 µM in the assay with SK-MEL-2 melanoma; 6.63 µM in the assay on NCI-H522 lung; more than 100 µM in the assay with SR leukemia; 14.1 µM in the assay with OVCAR-4 ovarian; 7.07 µM with SW-620 colon. In addition, the TGI worked out at 15 µM in the assay with TK-10 renal, 4.57 µM with HCT-116 colon, 6.61 µM in the assay on BT-549 breast and 70.5 µM with SK-OV-3 ovarian.
As for `O=C(CN1CCN(c2ccc(Cl)cc2)CC1)N1CCN(c2nnc(-c3ccccc3)c(-c3ccccc3)n2)CC1`, the GI50 with HCT-15 colon is 5.12 µM; in the assay on SK-MEL-2 melanoma, more than 100 µM; in the assay on NCI-H522 lung, 16.2 µM; with SR leukemia, 2.73 µM; in the assay on OVCAR-4 ovarian, 1.75 µM; with SW-620 colon it was 38.9 µM. Moreover, the GI50 is more than 100 µM in the assay on TK-10 renal, 3.42 µM with HCT-116 colon, 3.14 µM with BT-549 breast and 75.7 µM in the assay with SK-OV-3 ovarian. In addition, the TGI is more than 100 µM in the assay with HCT-15 colon; more than 100 µM with SK-MEL-2 melanoma; more than 100 µM in the assay with NCI-H522 lung; 15.7 µM in the assay with SR leukemia; more than 100 µM with OVCAR-4 ovarian; more than 100 µM in the assay on SW-620 colon. The TGI in the assay with TK-10 renal, with HCT-116 colon, with BT-549 breast and with SK-OV-3 ovarian was more than 100 µM in each case.
For the compound `COC(=O)C1C2CCCN2OC1(C)CO` (stereo not given), the TGI in the assay on HCT-15 colon, with SK-MEL-2 melanoma, with NCI-H522 lung, with SR leukemia, with OVCAR-4 ovarian and with SW-620 colon was more than 100 µM throughout. The TGI in the assay with TK-10 renal, with HCT-116 colon, with BT-549 breast and with SK-OV-3 ovarian was more than 100 µM throughout.
`CCN(CC(COc1ccc2c(c1)[n+]([O-])nc(N)[n+]2[O-])OC(C)=O)C(C)=O` (stereo not given): the TGI in the assay with HCT-15 colon is more than 100 µM; in the assay on SK-MEL-2 melanoma, more than 100 µM; with NCI-H522 lung it was 56.3 µM; in the assay with SR leukemia it was more than 100 µM; in the assay with OVCAR-4 ovarian, more than 100 µM; with SW-620 colon, more than 100 µM. Moreover, the TGI with TK-10 renal is more than 100 µM; in the assay on HCT-116 colon, more than 100 µM; with BT-549 breast, more than 100 µM; in the assay with SK-OV-3 ovarian, 74.9 µM.
